Data taken from ChEMBL document CHEMBL1201862, “PubChem BioAssay data set” (2004).
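The compound was tested at five concentrations on cells cultured in 96-well plates, with a 48-hour exposure period. GI50 marks 50% less growth.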 Activity calls are given as the source filed them. No stated cut-off is given here; in the data, active = GI50 up to about 1.1 µM and inactive = higher.

Columns and labels:
Test in all cases: inhibition of tumour cell growth, NCI panel, 48 h
[1] = tested on: A549
[2] = tested on: COLO 205
[3] = tested on: HCT-116
[4] = tested on: HL-60
[5] = tested on: HOP-62
[6] = tested on: IGROV-1
[7] = tested on: KM-20L2
[8] = tested on: KM12
[9] = tested on: LOX IMVI
[10] = tested on: M19-MEL
[11] = tested on: Malme-3M
[12] = tested on: NCI-H460
[13] = tested on: OVCAR-3
[14] = tested on: RPMI-8226
[15] = tested on: SK-MEL-5
[16] = tested on: SNB-19
[17] = tested on: NCI-H226
[18] = tested on: NCI-H23
[19] = tested on: BT-549
[20] = tested on: NCI/ADR-RES

Measured: GI50

C[N+]1(C)C/C(=C\c2ccncc2)C(=O)/C(=C/c2ccncc2)C1
inactive: [1] > 100 µM | [2] > 100 µM | [3] 38.5 µM | [4] 24.8 µM | [5] > 100 µM | [6] > 100 µM | [7] > 100 µM | [8] > 100 µM | [9] > 100 µM | [10] > 100 µM | [11] > 100 µM | [12] > 100 µM | [13] > 100 µM | [14] 63.8 µM | [15] > 100 µM | [16] > 100 µM

COC[C@H](C)/N=C/N1CCc2ccccc2C1(Cc1ccccc1)Cc1ccccc1
inactive: [1] 30.4 µM | [2] 13.5 µM | [3] 10.8 µM | [4] 6.17 µM | [5] 24.8 µM | [6] 68.1 µM | [7] 10.8 µM | [8] 13.6 µM | [11] 11.8 µM | [17] 18.5 µM | [18] 17.2 µM | [12] 12 µM | [13] 22.1 µM | [14] 15.8 µM | [15] 47.9 µM | [16] 17.3 µM

O=C1C2c3[nH]c4ccccc4c3[C@@H]3CCCCCCCCCCC3C2C(=O)N1c1ccccc1 (stereo not given in full)
inactive: [1] 21.8 µM | [2] 23 µM | [4] 12.1 µM | [6] 18.7 µM | [8] 18.2 µM | [9] 16.1 µM | [10] 22.2 µM | [17] 33.5 µM | [18] 17.5 µM | [12] 17.3 µM | [13] 16 µM | [14] 38.6 µM | [15] 78 µM | [16] 12.4 µM

COc1ccc(C2=Nc3ccccc3NC(=O)C2)cc1
inactive: [1] 77.6 µM | [2] 38.3 µM | [3] 20.5 µM | [4] 21.8 µM | [5] 22.5 µM | [6] 34.6 µM | [7] 55.7 µM | [8] > 100 µM | [9] 18.3 µM | [10] 48.3 µM | [11] 92 µM | [17] > 100 µM | [18] 26.9 µM | [12] 31.1 µM | [13] 64 µM | [15] > 100 µM | [16] 28.2 µM

Cc1noc(C)c1CCCOC1COc2ccccc2OCCOCCOc2ccccc2OC1
inactive: [1] > 100 µM | [2] > 100 µM | [4] > 100 µM | [5] > 100 µM | [6] > 100 µM | [7] > 100 µM | [8] > 100 µM | [9] > 100 µM | [10] > 100 µM | [11] 80.4 µM | [17] > 100 µM | [18] > 100 µM | [13] > 100 µM | [15] > 100 µM | [16] > 100 µM

Cc1cc2c(c(N)c1C)C(=O)c1ccccc1C2=O
inactive: [1] 26.3 µM | [2] > 100 µM | [3] 19 µM | [4] > 100 µM | [5] 13.9 µM | [6] 12.6 µM | [7] 25 µM | [8] 11.1 µM | [9] 17.7 µM | [10] 65.5 µM | [11] 42.3 µM | [12] 34.5 µM | [14] 52.1 µM | [15] 20.2 µM | [16] 27.9 µM

O=C1c2ccc(O)cc2C(=O)c2ccc(O)cc21
inactive: [1] 54.6 µM | [2] > 100 µM | [3] 39.4 µM | [4] 70.5 µM | [5] 30.6 µM | [6] 48.3 µM | [8] 88.7 µM | [9] 58.1 µM | [10] > 100 µM | [11] 57.4 µM | [18] 59.2 µM | [12] 53.2 µM | [13] 78.5 µM | [14] 42.8 µM | [15] > 100 µM | [16] 78.9 µM

C/C(=N/NC(=O)c1ccccc1O)c1ccc(/C(C)=N\NC(=O)c2ccccc2O)c2nc3cc(C)c(C)cc3nc12
inactive: [1] > 100 µM | [2] > 100 µM | [3] > 100 µM | [5] > 100 µM | [6] > 100 µM | [7] > 100 µM | [8] > 100 µM | [9] > 100 µM | [10] > 100 µM | [11] > 100 µM | [17] > 100 µM | [18] > 100 µM | [12] > 100 µM | [13] > 100 µM | [15] > 100 µM | [16] > 100 µM

CCc1ccc(/N=C\c2cc(OC)c(OC)c(OC)c2)cc1
inactive: [1] > 100 µM | [3] > 100 µM | [5] > 100 µM | [6] > 100 µM | [7] > 100 µM | [8] > 100 µM | [9] 20.9 µM | [10] > 100 µM | [11] > 100 µM | [18] > 100 µM | [12] 37.7 µM | [13] > 100 µM | [14] 16.6 µM | [15] > 100 µM | [16] > 100 µM

CSC1=C(C(=O)N(COCC[Si](C)(C)C)c2ccccc2Br)CCC(C(C)(C)C)C1 (stereo not given)
inactive: [1] 17 µM | [19] 28.1 µM | [2] 12.4 µM | [3] 5.32 µM | [4] 3.24 µM | [5] 18.1 µM | [6] 23.2 µM | [8] 14.2 µM | [9] 15.7 µM | [11] 16.6 µM | [17] 13.9 µM | [18] 13.8 µM | [12] 13.6 µM | [20] 13.7 µM | [13] 10.7 µM | [14] 10.6 µM | [15] 12.8 µM | [16] 18.5 µM

CCC1CCc2c(OC)ccc(OCC(=O)O)c2C1=O (stereo not given)
inactive: [1] > 100 µM | [2] > 100 µM | [4] > 100 µM | [5] > 100 µM | [6] > 100 µM | [8] > 100 µM | [9] > 100 µM | [10] > 100 µM | [11] > 100 µM | [17] > 100 µM | [18] > 100 µM | [13] > 100 µM | [14] > 100 µM | [15] > 100 µM | [16] > 100 µM

c1ccc(C2C3=C(Nc4ncnn42)c2ccccc2C3)cc1 (stereo not given)
inactive: [1] 34.5 µM | [2] 11 µM | [3] 12 µM | [4] 5.07 µM | [5] 31.7 µM | [6] 86.1 µM | [7] 7.89 µM | [8] 4.68 µM | [9] 15.6 µM | [10] 9.75 µM | [11] 15.6 µM | [18] 15 µM | [12] 12.1 µM | [13] 8.93 µM | [14] 29.5 µM | [15] 10.9 µM | [16] 14.9 µM
